Measured values as given in patent US5420261A, “Glycosides of 3'-deoxyaquayamycin antibiotics” (Schering Corporation, priority 1992, dated 1995).
Converted amounts (≈) assume the structure as drawn. Where two headings read alike, the source gives them in different places.

Columns and labels:
Candida (8 species) = assay: In vitro antifungal activity in Sabouraud dextrose broth, Candida (8 species); type: cell-based; details: read-out: GEOMETRIC MEAN MIC
S. aureus = assay: Bioautography after thin layer chromatography, S. aureus; type: cell-based; details: TLC in 2:2:1 chloroform: methanol: pH 3.5 acetate buffer
Excerpt: (§1) The medium employed for the fermentation contained beef extract, tryptone, yeast extract, cerelose and soluble starch as the major sources of nitrogen and carbon, respectively.

C. abicans = assay: Bioautography after thin layer chromatography, C. abicans; type: cell-based; details: TLC in 2:2:1 chloroform: methanol: pH 3.5 acetate buffer
Excerpt: as §1

[1] = test system: Dermatophytes (seven species); assay: In vitro antifungal activity in Sabouraud dextrose broth, dermatophytes (seven species); type: cell-based; details: read-out: GEOMETRIC MEAN MIC
Mycelial = assay: In vitro activity in Eagles Medium Essential Medium (EMEM), Mycelial; type: cell-based; details: read-out: GEOMETRIC MEAN MIC
Solubility = type: physicochemical
E. coli = assay: Bioautography after thin layer chromatography, E. coli; type: cell-based; details: TLC in 2:2:1 chloroform: methanol: pH 3.5 acetate buffer
Excerpt: as §1

[2] = Sabouraud Dextrose Broth Medium, Candida (8 species)
[3] = Sabouraud Dextrose Broth Medium, Dermatophytes (seven species)

SMILES | MIC (Candida (8 species); [2]) [µg/mL] | biological activity by bioautography (S. aureus) | biological activity by bioautography (C. abicans) | MIC [1, 3] [µg/mL] | MIC (Mycelial) [µg/mL] | solubility in dichlormethane, chloroform and dimethyl sulfoxide (Solubility) | solubility in hexane and water (Solubility) | solubility in methanol, diethyl ether and ethyl acetate (Solubility) | biological activity by bioautography (E. coli) | MIC (Candida (8 species); Candida) [µg/mL] | MIC [1] [µg/mL]
CC1OC(OC2CCC(c3ccc4c(c3O)C(=O)C3=C(C4=O)C4(O)C(=O)CC(C)(OC5C=CC(=O)C(C)O5)CC4(O)C=C3)OC2C)C=CC1=O (stereo not drawn) [Compound 1a] | ≥ 43 | biologically active | biologically active | ≥ 5 | 78 (≈ 113 µM) | soluble in dichlormethane, chloroform and dimethyl sulfoxide | insoluble in hexane and water | less soluble in methanol, diethyl ether and ethyl acetate | biologically active |  | 
COc1cccc2c1C(=O)c1c(O)c3c(c(O)c1C2=O)C[C@@](O)(C(=O)CO)C[C@@H]3O[C@H]1C[C@H](N)[C@H](O)[C@H](C)O1 [Adriamycin, reference compound] |  |  |  |  | 128 (≈ 235 µM) |  |  |  |  | ≥ 128 | ≥ 128
CC1OC(OC2(C)CC(=O)C3(O)C4=C(C=CC3(O)C2)C(=O)c2c(ccc(C3CCC(OC5CCC(O)C(C)O5)C(C)O3)c2O)C4=O)C=CC1=O (stereo not drawn) [Compound 1b] | ≥ 128 | biologically active | biologically active | ≥ 132 | 95 (≈ 137 µM) | soluble in dichlormethane, chloroform and dimethyl sulfoxide | insoluble in hexane and water | less soluble in methanol, diethyl ether and ethyl acetate | biologically active |  | 
